Test results as given in ChEMBL document CHEMBL6109101, “Synthesis and bioactivity of cyclic peptide GG-8-6 analogues as anti-hepatocellular carcinoma agents” (Eur J Med Chem, 2025).
pIC50: −log10 of the molar value.

Assays:
[1] = tested on: HepG2; test: Cytotoxicity against human HepG2 cells assessed as inhibition of cell proliferation incubated for 48 hrs by MTT assay; type: functional, cell-based; details: HepG2, 48 h
[2] = tested on: Huh-7; test: Cytotoxicity against human Huh-7 cells assessed as inhibition of cell proliferation incubated for 48 hrs by MTT assay; type: functional, cell-based; details: Huh-7, 48 h
[3] = tested on: MHCC97H; test: Cytotoxicity against human MHCC97H cells assessed as inhibition of cell proliferation incubated for 48 hrs by MTT assay; type: functional, cell-based
[4] = tested on: HCCLM3; test: Cytotoxicity against human HCCLM3 cells assessed as inhibition of cell proliferation incubated for 48 hrs by MTT assay; type: functional, cell-based; details: HCCLM3, 48 h
[5] = Toxicity in nude mouse implanted with human MHCC97H cells assessed as body weight at 20 mg/kg, po administered daily for 3 weeks and measured immediately (reference value: 25.05 g); type: organism-based; details: in vivo, 504 h
[6] = tested on: MHCC97H; test: Antitumor activity against human MHCC97H cells xenografted in nude mouse assessed as tumor weight at 20 mg/kg, po administered daily for 3 weeks (reference value: 1.667g); type: functional
[7] = tested on: MHCC97H; test: Antitumor activity against human MHCC97H cells xenografted in nude mouse assessed as tumor growth inhibition at 20 mg/kg, po administered daily for 3 weeks relative to control; type: functional; details: 504 h, read-out: TGI
[8] = tested on: HepG2; test: Antiproliferative activity against human HepG2 cells assessed as reduction in intracellular ATP level at 10 uM incubated for 48 hrs by luminometer analysis relative to control; type: functional; design: scale not given: the % may be the effect or the level left
[9] = tested on: Huh-7; test: Antiproliferative activity against human Huh-7 cells assessed as reduction in intracellular ATP level at 10 uM incubated for 48 hrs by luminometer analysis relative to control; type: functional; design: scale not given: the % may be the effect or the level left
[10] = tested on: MHCC97H; test: Antiproliferative activity against human MHCC97H cells assessed as reduction in intracellular ATP level at 10 uM incubated for 48 hrs by luminometer analysis relative to control; type: functional; design: scale not given: the % may be the effect or the level left
[11] = tested on: HCCLM3; test: Antiproliferative activity against human HCCLM3 cells assessed as reduction in intracellular ATP level at 10 uM incubated for 48 hrs by luminometer analysis relative to control; type: functional; design: scale not given: the % may be the effect or the level left
[12] = tested on: MHCC97H; test: Antitumor activity against human MHCC97H cells xenografted in nude mouse assessed as tumor weight at 10 mg/kg, po administered daily for 3 weeks (reference value: 1.667g); type: functional
[13] = tested on: MHCC97H; test: Antitumor activity against human MHCC97H cells xenografted in nude mouse assessed as tumor weight at 5 mg/kg, po administered daily for 3 weeks (reference value: 1.667g); type: functional
[14] = tested on: MHCC97H; test: Antitumor activity against human MHCC97H cells xenografted in nude mouse assessed as tumor growth inhibition at 10 mg/kg, po administered daily for 3 weeks relative to control; type: functional; details: 504 h, read-out: TGI
[15] = tested on: MHCC97H; test: Antitumor activity against human MHCC97H cells xenografted in nude mouse assessed as tumor growth inhibition at 5 mg/kg, po administered daily for 3 weeks relative to control; type: functional; details: 504 h, read-out: TGI
[16] = Toxicity in nude mouse implanted with human MHCC97H cells assessed as body weight at 10 mg/kg, po administered daily for 3 weeks and measured immediately (reference value: 25.05 g); type: organism-based; details: in vivo, 504 h
[17] = Toxicity in nude mouse implanted with human MHCC97H cells assessed as body weight at 5 mg/kg, po administered daily for 3 weeks and measured immediately (reference value: 25.05 g); type: organism-based; details: in vivo, 504 h
[18] = Toxicity in nude mouse implanted with human MHCC97H cells assessed as body weight at 10 mg/kg, po administered daily for 3 weeks and measured at day 22 (reference value: 26.38 g); type: organism-based; details: in vivo, 1032 h, time 43 day
[19] = Toxicity in nude mouse implanted with human MHCC97H cells assessed as body weight at 5 mg/kg, po administered daily for 3 weeks and measured at day 22 (reference value: 26.38 g); type: organism-based; details: in vivo, 1032 h, time 43 day
[20] = Toxicity in nude mouse implanted with human MHCC97H cells assessed as heart damage at 5 to 10 mg/kg, po administered daily for 3 weeks by H and E staining based analysis; type: organism-based; details: in vivo, 504 h, dose 5-10 mg/kg
[21] = Toxicity in nude mouse implanted with human MHCC97H cells assessed as liver damage at 5 to 10 mg/kg, po administered daily for 3 weeks by H and E staining based analysis; type: organism-based; details: in vivo, 504 h, dose 5-10 mg/kg
[22] = Toxicity in nude mouse implanted with human MHCC97H cells assessed as spleen damage at 5 to 10 mg/kg, po administered daily for 3 weeks by H and E staining based analysis; type: organism-based; details: in vivo, 504 h, dose 5-10 mg/kg
[23] = Toxicity in nude mouse implanted with human MHCC97H cells assessed as lung damage at 5 to 10 mg/kg, po administered daily for 3 weeks by H and E staining based analysis; type: organism-based; details: in vivo, 504 h, dose 5-10 mg/kg
[24] = Toxicity in nude mouse implanted with human MHCC97H cells assessed as kidney damage at 5 to 10 mg/kg, po administered daily for 3 weeks by H and E staining based analysis; type: organism-based; details: in vivo, 504 h, dose 5-10 mg/kg
[25] = tested on: MHCC97H; test: Antiproliferative activity against human MHCC97H cells assessed as reduction in intracellular ATP level at 30 uM incubated for 48 hrs by luminometer analysis relative to control; type: functional; design: scale not given: the % may be the effect or the level left
[26] = tested on: MHCC97H; test: Antitumor activity against human MHCC97H cells xenografted in nude mouse assessed as tumor weight at 15 mg/kg, po administered daily for 3 weeks (reference value: 1.667g); type: functional
[27] = tested on: MHCC97H; test: Antitumor activity against human MHCC97H cells xenografted in nude mouse assessed as tumor growth inhibition at 15 mg/kg, po administered daily for 3 weeks relative to control; type: functional; details: 504 h, read-out: TGI

Row | Compound | pIC50 [1] | pIC50 [2] | pIC50 [3] | pIC50 [4] | Activity [8] [%] | Activity [9] [%] | Activity [10] [%] | Activity [11] [%] | Activity [12] [g] | Activity [13] [g] | inhibition in vivo at 10 mg/kg [14] [%] | inhibition in vivo at 5 mg/kg [15] [%] | further results
1 | CNC(=O)c1cc(Oc2ccc(NC(=O)Nc3ccc(Cl)c(C(F)(F)F)c3)cc2)ccn1 [SORAFENIB] | 4.86 | 4.86 | 4.82 | 5.04 | – | – | – | – | – | – | – | – | Activity [5]: 26.85 g; Activity [6]: 0.955 g; inhibition in vivo at 20 mg/kg [7]: 42.8%
2 | CC[C@H](C)[C@@H]1NC(=O)[C@@H]2CCCN2C(=O)[C@H](CC(C)C)NC(=O)[C@H](COC(C)(C)C)NC(=O)[C@H](CC(C)C)NC(=O)[C@H](C(C)C)NC(=O)[C@H](CC(C)C)NC(=O)[C@H](CC(C)C)NC(=O)[C@H](CC(C)C)NC1=O [listing 1 of 2 here] | – | – | – | – | 41.1 | 81.8 | 87.8 | 99.9 | 0.262 | 0.052 | 84.3 | 68.9 | –
3 | CC[C@H](C)[C@@H]1NC(=O)[C@@H]2CCCN2C(=O)[C@H](CC(C)C)NC(=O)[C@H](COC(C)(C)C)NC(=O)[C@H](CC(C)C)NC(=O)[C@H](C(C)C)NC(=O)[C@H](CC(C)C)NC(=O)[C@H](CC(C)C)NC(=O)[C@H](CC(C)C)NC1=O [listing 2 of 2 here] | 5.48 | 5.48 | 5.39 | 5.34 | – | – | – | – | – | – | – | – | Activity [16]: 25.6 g; Activity [17]: 25.98 g; Activity [18]: 26.43 g; Activity [19]: 26.7 g; Activity [20]: Non-toxic; Activity [21]: Non-toxic; Activity [22]: Non-toxic; Activity [23]: Non-toxic; Activity [24]: Non-toxic
4 | CC[C@H](C)[C@@H]1NC(=O)[C@@H]2CCCN2C(=O)[C@H](CC(C)C)NC(=O)[C@H](CO)NC(=O)[C@H](CC(C)C)NC(=O)[C@H](C(C)C)NC(=O)[C@H](CC(C)C)NC(=O)[C@H](CC(C)C)NC(=O)[C@H](CC(C)C)NC1=O | – | – | – | – | 47.1 | 47.3 | 47.3 | 45.9 | 0.732 | 0.552 | 56.1 | 66.9 | Activity [25]: 61.9%; Activity [26]: 0.695 g; inhibition in vivo at 15 mg/kg [27]: 58.4%
